The nature of series [1]: PK profile of compound AZ002. Particulars: in vivo. From the text:
In some instances, compounds of the invention are provided as a pharmaceutical acceptable salt. Suitable pharmaceutical acceptable salts include those disclosed herein. In some embodiments, pharmaceutically acceptable salts of compounds of the invention provide a better pharmacokinetics.

The test system of series [2] is TTX-S NaV1.7 currents in rat DRGs. Nature of the series: Patch clamp TTX-S NaV1.7 currents in rat DRGs. The series is classed as cell-based. Particulars: FIG. 5. The protocol: Culturing and Transfection of rat Primary Dorsal Root Ganglia (DRG) Neurons: Rat DRG neurons were isolated from 150-174 g Sprague-Dawley rats and then transfected using known procedures. In brief, removing dorsal skin and muscle and cutting the vertebral bone processes parallel to the dissection stage exposed DRGs. DRGs were then collected, trimmed at their roots, and digested in 3 ml bicarbonate free, serum free, sterile DMEM (Cat #11965, Thermo Fisher Scientific, Waltham, Mass.) solution containing neutral protease (3.125 mg·ml-1, Cat #LS02104, Worthington, Lakewood, N.J.) and collagenase Type I (5 mg·ml-1, Cat #LS004194, Worthington, Lakewood, N.J.) and incubated for 45 min at 37° C. under gentile agitation. Dissociated DRG neurons (˜1.5×106) were then gently centrifuged to collect cells and washed with DRG media DMEM containing 1% penicillin/streptomycin sulfate from 10 000 μg/ml stock, 30 ng.ml-1 nerve growth factor, and 10% fetal bovine serum (Hyclone). Collected cells were re-suspended in Nucleofector transfection reagent containing plasmids or siRNA at the working concentrations listed above. Then, cells were subjected to electroporation protocol O-003 in an Amaxa Biosystem (Lonza, Basel, Switzerland) and plated onto poly-D-lysine—and laminin-coated glass 12- or 15-mm coverslips. Transfection efficiencies were routinely between 20% and 30% with about ˜10% cell death. […]

Series [3] relates to TTX-S NaV1.7 currents in human DRGs. Nature of the series: Patch clamp H-infinity subtracted NaV1.7 currents in human DRGs. The note with it: FIG. 5. The format is cell-based. On the procedure: Patch Clamp Electrophysiology: Whole cell voltage clamp and current clamp recordings were performed at room temperature using an EPC 10 Amplifier-HEKA. The internal solution for voltage clamp CAD cell recordings contained (in mM): 110CsCl, 5 MgSO4, 10 EGTA, 4 ATP Na2-ATP, and 25 HEPES (pH 7.3, 290-310 mOsm/L) and external solution contained (in mM): 100 NaCl, 10 tetraethylammonium chloride, 1 CaCl2, 1 CdCl2, 1 MgCl2, 10 D-glucose, 4 4-aminopyridine, 0.1 NiCl2, 10 HEPES (pH 7.3, 310-315 mosM/L). For DRG and HEK293 cells the internal solution for voltage clamp contained (in mM): 140CsF, 1.1Cs-EGTA, 10 NaCl, and 15 HEPES (pH 7.3, 290-310 mOsm/L) and external solution contained (in mM): 140 NaCl, 3 KCl, 30 tetraethylammonium chloride, 1 CaCl2, 0.5 CdCl2, 1 MgCl2, 10 D-glucose, 10 HEPES (pH 7.3, 310-315 mosM/L). […]
Voltage clamp protocols: CAD and HEK293 cells were subjected to current-density (I-V) and fast-inactivation voltage protocols. […] The TTX-R peak current density was always measured at depolarizations near 0 mV and within 10 ms of the voltage step protocol. […] Thus, sodium current present at 150 ms following a voltage pulse to −60 mV was analyzed, an established method of isolating Nav1.9 current. […]

Series [4] has as its system human DRGs in a mixed glia-DRG co-culture. Nature of the series: Cell morphology or health of human DRGs after overnight incubation. The series is classed as cell-based.
Series [5] relates to spared nerve injury model of neuropathic pain. Put plainly: Spared nerve injury model, mechanical hypersensitivity (paw withdrawal threshold). The format is in vivo, rat. Particulars: spinal administration 5 μg/10 μL; 7 days post-injury; n=6. On the procedure: Rat Behavioral Pain Assay: Compound AZ002 reversed mechanical hypersensitivity in a model of nerve-injury induced chronic pain.
Data was analyzed using one-way ANOVA followed by Dunnett's Multiple Comparison Test using post injury baseline as control.
Indwelling intrathecal catheter: Rats were anesthetized (ketamine/xylazine anesthesia, 80/12 mg/kg i.p.; Sigma-Aldrich) and placed in a stereotaxic head holder. The cisterna magna was exposed and incised, and an 8-cm catheter (PE-10; Stoelting) was implanted terminating in the lumbar region of the spinal cord. Catheters were sutured (3-0 silk suture) into the deep muscle and externalized at the back of the neck; skin was closed with autoclips. After a recovery period of 5-7 days after implantation of the indwelling cannula, the spared nerve injury was induced.
Spared Nerve Injury (SNI): Under isoflurane anesthesia (5% induction, 2.0% maintenance in 2 L/min air), skin on the lateral surface of the left hind thigh was incised. […]
Mechanical Allodynia: Rats were allowed to acclimate within suspended wire mesh cages for 30 minutes prior to behavioral assessment. […] Paw withdrawal thresholds were calculated in grams using the Dixon non-parametric test and expressed as the Paw Withdrawal Threshold (mean±standard error; SEM) in GraphPad Prism 6.0. […]

Each structure is given as a SMILES string.

Take `COc1cc(OC)cc(C(=O)Nc2ccc(N3CCN(C)CC3)cc2)c1` [AZ002]: in series [1], the Cmax worked out at 263 ng/mL, the Tmax turned out to be 2 h and the half-life is 5.8 h. In addition, in series [1] (0-24 hr), the AUC(0-t) amounted to 2380 ng·h/mL. Besides, the bioavailability in series [1] (read-out: bioavailability (F)) worked out at 31%. Moreover, in series [2], the “inhibition of TTX-S NaV1.7 currents” value is given as “inhibits”. For the same molecule, the “inhibition of TTX-S NaV1.7 currents” value in series [3] is recorded as “inhibits”. Further, the “effect on cell morphology or health” value in series [4] is “does not affect cell morphology or health”. Further, the “reversal of mechanical hypersensitivity” value in series [5] was “significantly reversed”.

Source of the values: patent US11020391B2, “CRMP2 sumoylation inhibitors and uses thereof” (ARIZONA BOARD OF REGENTS ON BEHALF OF THE UNIVERSITY OF …, priority 2015, dated 2021).
